{
  "source": "paper PMC7490411",
  "about": "(Signal Transduction and Targeted Therapy, 2020)",
  "key": {"[1]": {"test_system": "NK cells co-seeded with SK-OV-3 cells", "assay": "IFN-γ secretion ELISA, NK cells co-cultured with SK-OV-3 cells in presence of Herceptin", "type": "cell-based, human", "details": "SK-OV-3 co-culture; 0.1 to 3 μM", "procedure": "Peripheral blood mononuclear cells (PBMC) were separated from the blood of healthy donors by Ficoll density gradient centrifugation (Histopaque-1077, Sigma-Aldrich). Cells were enriched using a MACS® human NK cell negative-selection isolation kit (Miltenyi Biotec, Germany) according to the manufacturer’s instructions. Purified NK cells were cultured with 1000U/ml IL2 for 48h. […] The concentrations of interferon (IFN)-γ in cell culture supernatants obtained from three independent experiments were detected using commercial ELISA kits (absin, #abs510007), according to the manufacturer’s instructions. The human IFN-γ kit sensitivity was 7.8 pg/ml."}, "[2]": {"test_system": "BTK Y223 autophosphorylation", "assay": "signaling pathway western blot in TMD8, REC-1 and DOHH2 cells", "type": "cell-based", "details": "4 h", "text": "The cells were then washed in PBS and lysed in cell lysis buffer. BTK, Phospho-BTK(Tyr223), PLCγ2, Phospho-PLCγ2 (Tyr1217), Phospho-AKT […], Phospho-NF-κB p65(Ser536), ERK, Phospho-p44/42MAPK (ERK1/2) (Thr202/Tyr204), AKT and GAPDH antibody (Cell signaling Technology) were used for immunoblotting."}, "[3]": {"assay": "drug enrichment in the tumor", "type": "in vivo, mouse", "details": "100 mg/kg"}, "[4]": {"test_system": "ABL1(F317L)-phosphorylated", "assay": "KINOMEscan", "type": "binding", "details": "1000 nM"}, "ACVR2B": {"test_system": "ACVR2B", "assay": "KINOMEscan", "type": "binding", "details": "1000 nM"}, "ARK5": {"test_system": "ARK5", "assay": "KINOMEscan", "type": "binding", "details": "1000 nM"}, "AURKA": {"test_system": "AURKA", "assay": "KINOMEscan", "type": "binding", "details": "1000 nM"}, "AURKC": {"test_system": "AURKC", "assay": "KINOMEscan", "type": "binding", "details": "1000 nM"}, "CAMK1": {"test_system": "CAMK1", "assay": "KINOMEscan", "type": "binding", "details": "1000 nM"}, "CAMK1B": {"test_system": "CAMK1B", "assay": "KINOMEscan", "type": "binding", "details": "1000 nM"}, "CAMK2B": {"test_system": "CAMK2B", "assay": "KINOMEscan", "type": "binding", "details": "1000 nM"}, "CDC2L2": {"test_system": "CDC2L2", "assay": "KINOMEscan", "type": "binding", "details": "1000 nM"}, "CDK7": {"test_system": "CDK7", "assay": "KINOMEscan", "type": "binding", "details": "1000 nM"}, "CDK9": {"test_system": "CDK9", "assay": "KINOMEscan", "type": "binding", "details": "1000 nM"}, "CDKL1": {"test_system": "CDKL1", "assay": "KINOMEscan", "type": "binding", "details": "1000 nM"}, "CSNK1A1L": {"test_system": "CSNK1A1L", "assay": "KINOMEscan", "type": "binding", "details": "1000 nM"}, "CSNK1G3": {"test_system": "CSNK1G3", "assay": "KINOMEscan", "type": "binding", "details": "1000 nM"}, "DYRK2": {"test_system": "DYRK2", "assay": "KINOMEscan", "type": "binding", "details": "1000 nM"}, "EPHA8": {"test_system": "EPHA8", "assay": "KINOMEscan", "type": "binding", "details": "1000 nM"}, "ERBB4": {"test_system": "ERBB4", "assay": "KINOMEscan", "type": "binding", "details": "1000 nM"}, "FGR": {"test_system": "FGR", "assay": "KINOMEscan", "type": "binding", "details": "1000 nM"}, "FLT3(D835V)": {"test_system": "FLT3(D835V)", "assay": "KINOMEscan", "type": "binding", "details": "1000 nM"}, "FLT3-autoinhibited": {"test_system": "FLT3-autoinhibited", "assay": "KINOMEscan", "type": "binding", "details": "1000 nM"}, "GRK1": {"test_system": "GRK1", "assay": "KINOMEscan", "type": "binding", "details": "1000 nM"}, "ITK": {"target": "T1, ITK (Homo sapiens, UniProt Q08881)", "T1 construct": "purchased Invitrogen (Carlsbad, CA, USA)", "T1 sequence (Q08881 1-620)": "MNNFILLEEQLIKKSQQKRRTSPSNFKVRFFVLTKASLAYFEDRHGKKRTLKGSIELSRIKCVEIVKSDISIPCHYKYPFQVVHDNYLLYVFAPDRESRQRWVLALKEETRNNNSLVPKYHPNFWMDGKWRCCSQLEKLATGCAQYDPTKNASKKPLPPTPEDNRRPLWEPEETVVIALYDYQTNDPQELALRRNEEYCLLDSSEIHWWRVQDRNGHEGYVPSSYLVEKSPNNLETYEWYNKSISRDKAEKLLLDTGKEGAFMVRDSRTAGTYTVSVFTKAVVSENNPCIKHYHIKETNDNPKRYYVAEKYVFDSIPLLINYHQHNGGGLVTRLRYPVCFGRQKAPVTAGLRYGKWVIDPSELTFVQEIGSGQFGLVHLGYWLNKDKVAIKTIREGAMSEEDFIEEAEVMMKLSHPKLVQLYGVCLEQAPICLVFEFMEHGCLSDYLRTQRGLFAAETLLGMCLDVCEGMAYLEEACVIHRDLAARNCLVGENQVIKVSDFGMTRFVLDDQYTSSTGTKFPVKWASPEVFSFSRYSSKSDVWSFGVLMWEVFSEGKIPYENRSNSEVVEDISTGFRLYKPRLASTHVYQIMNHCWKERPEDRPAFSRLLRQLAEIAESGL", "assay": "KINOMEscan", "type": "binding", "details": "1000 nM, read-out: Percent Control"}, "JNK1": {"test_system": "JNK1", "assay": "KINOMEscan", "type": "binding", "details": "1000 nM"}, "JNK2": {"test_system": "JNK2", "assay": "KINOMEscan", "type": "binding", "details": "1000 nM"}, "KIT": {"test_system": "KIT", "assay": "KINOMEscan", "type": "binding", "details": "1000 nM"}, "KIT(A829P)": {"test_system": "KIT(A829P)", "assay": "KINOMEscan", "type": "binding", "details": "1000 nM"}, "KIT(D816H)": {"test_system": "KIT(D816H)", "assay": "KINOMEscan", "type": "binding", "details": "1000 nM"}, "KIT(V559D,T670I)": {"test_system": "KIT(V559D,T670I)", "assay": "KINOMEscan", "type": "binding", "details": "1000 nM"}, "MEK5": {"test_system": "MEK5", "assay": "KINOMEscan", "type": "binding", "details": "1000 nM"}, "PIK3CG": {"test_system": "PIK3CG", "assay": "KINOMEscan", "type": "binding", "details": "1000 nM"}, "PKAC-beta": {"test_system": "PKAC-beta", "assay": "KINOMEscan", "type": "binding", "details": "1000 nM"}, "PRKD2": {"test_system": "PRKD2", "assay": "KINOMEscan", "type": "binding", "details": "1000 nM"}, "PRKR": {"test_system": "PRKR", "assay": "KINOMEscan", "type": "binding", "details": "1000 nM"}, "RET(V804L)": {"test_system": "RET(V804L)", "assay": "KINOMEscan", "type": "binding", "details": "1000 nM"}, "RIPK4": {"test_system": "RIPK4", "assay": "KINOMEscan", "type": "binding", "details": "1000 nM"}, "ROCK1": {"test_system": "ROCK1", "assay": "KINOMEscan", "type": "binding", "details": "1000 nM"}, "[5]": {"test_system": "RPS6KA4(Kin.Dom.2-C-terminal)", "assay": "KINOMEscan", "type": "binding", "details": "1000 nM"}, "[6]": {"test_system": "RSK4(Kin.Dom.1-N-terminal)", "assay": "KINOMEscan", "type": "binding", "details": "1000 nM"}, "SGK2": {"test_system": "SGK2", "assay": "KINOMEscan", "type": "binding", "details": "1000 nM"}, "STK16": {"test_system": "STK16", "assay": "KINOMEscan", "type": "binding", "details": "1000 nM"}},
  "data": [
    {"smiles": "C=CC(=O)Nc1cc(Nc2cc(-c3cccc(NC(=O)c4cc5c(s4)CCCC5)c3C)cn(C)c2=O)ccc1N1CCN(CC)CC1", "note": "[CHMFL-BTK-85]", "values": [
      {"measurement": "inhibition of Herceptin-induced IFN-γ secretion in NK cells", "setting": "[1]", "value": "no apparent inhibition"},
      {"measurement": "concentration blocking BTK Y223 autophosphorylation", "setting": "[2]", "value": "< 10", "unit": "nM"},
      {"measurement": "concentration in the tumor", "setting": "[3]", "value": 2.37, "unit": "µM"},
      {"measurement": "Percent Control", "setting": "[4]", "value": 100, "unit": "%"},
      {"measurement": "Percent Control", "setting": "ACVR2B", "value": 99, "unit": "%"},
      {"measurement": "Percent Control", "setting": "ARK5", "value": 97, "unit": "%"},
      {"measurement": "Percent Control", "setting": "AURKA", "value": 92, "unit": "%"},
      {"measurement": "Percent Control", "setting": "AURKC", "value": 100, "unit": "%"},
      {"measurement": "Percent Control", "setting": "CAMK1", "value": 100, "unit": "%"},
      {"measurement": "Percent Control", "setting": "CAMK1B", "value": 100, "unit": "%"},
      {"measurement": "Percent Control", "setting": "CAMK2B", "value": 100, "unit": "%"},
      {"measurement": "Percent Control", "setting": "CDC2L2", "value": 89, "unit": "%"},
      {"measurement": "Percent Control", "setting": "CDK7", "value": 96, "unit": "%"},
      {"measurement": "Percent Control", "setting": "CDK9", "value": 100, "unit": "%"},
      {"measurement": "Percent Control", "setting": "CDKL1", "value": 77, "unit": "%"},
      {"measurement": "Percent Control", "setting": "CSNK1A1L", "value": 100, "unit": "%"},
      {"measurement": "Percent Control", "setting": "CSNK1G3", "value": 100, "unit": "%"},
      {"measurement": "Percent Control", "setting": "DYRK2", "value": 98, "unit": "%"},
      {"measurement": "Percent Control", "setting": "EPHA8", "value": 91, "unit": "%"},
      {"measurement": "Percent Control", "setting": "ERBB4", "value": 91, "unit": "%"},
      {"measurement": "Percent Control", "setting": "FGR", "value": 20, "unit": "%"},
      {"measurement": "Percent Control", "setting": "FLT3(D835V)", "value": 11, "unit": "%"},
      {"measurement": "Percent Control", "setting": "FLT3-autoinhibited", "value": 100, "unit": "%"},
      {"measurement": "Percent Control", "setting": "GRK1", "value": 84, "unit": "%"},
      {"measurement": "remaining binding at 1 µM", "setting": "ITK", "value": 77, "unit": "%"},
      {"measurement": "Percent Control", "setting": "JNK1", "value": 100, "unit": "%"},
      {"measurement": "Percent Control", "setting": "JNK2", "value": 100, "unit": "%"},
      {"measurement": "Percent Control", "setting": "KIT", "value": 92, "unit": "%"},
      {"measurement": "Percent Control", "setting": "KIT(A829P)", "value": 92, "unit": "%"},
      {"measurement": "Percent Control", "setting": "KIT(D816H)", "value": 100, "unit": "%"},
      {"measurement": "Percent Control", "setting": "KIT(V559D,T670I)", "value": 100, "unit": "%"},
      {"measurement": "Percent Control", "setting": "MEK5", "value": 100, "unit": "%"},
      {"measurement": "Percent Control", "setting": "PIK3CG", "value": 100, "unit": "%"},
      {"measurement": "Percent Control", "setting": "PKAC-beta", "value": 80, "unit": "%"},
      {"measurement": "Percent Control", "setting": "PRKD2", "value": 100, "unit": "%"},
      {"measurement": "Percent Control", "setting": "PRKR", "value": 49, "unit": "%"},
      {"measurement": "Percent Control", "setting": "RET(V804L)", "value": 76, "unit": "%"},
      {"measurement": "Percent Control", "setting": "RIPK4", "value": 100, "unit": "%"},
      {"measurement": "Percent Control", "setting": "ROCK1", "value": 100, "unit": "%"},
      {"measurement": "Percent Control", "setting": "[5]", "value": 100, "unit": "%"},
      {"measurement": "Percent Control", "setting": "[6]", "value": 100, "unit": "%"},
      {"measurement": "Percent Control", "setting": "SGK2", "value": 100, "unit": "%"},
      {"measurement": "Percent Control", "setting": "STK16", "value": 68, "unit": "%"}
    ]}
  ]
}
